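Compound exposure: 48 hours, 5 concentrations, 96-well plates. Here, GI50 denotes the concentration required for 50% inhibition of growth.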 The source made the active and inactive calls. Rule as the data show it: active = GI50 up to about 1.1 µM and inactive = higher.
Experiments:
Assay in all cases: NCI tumour cell line growth inhibition, 48 h
786-0 = test system: 786-0
PC-3 = test system: PC-3
HCT-116 = test system: HCT-116
NCI-H460 = test system: NCI-H460
HOP-92 = test system: HOP-92
MDA-N = test system: MDA-N
SN12C = test system: SN12C
RPMI-8226 = test system: RPMI-8226
SF-539 = test system: SF-539
SK-OV-3 = test system: SK-OV-3
COLO 205 = test system: COLO 205
OVCAR-3 = test system: OVCAR-3
SK-MEL-2 = test system: SK-MEL-2
T47D = test system: T47D
MOLT-4 = test system: MOLT-4
UACC-257 = test system: UACC-257
HT-29 = test system: HT-29
OVCAR-5 = test system: OVCAR-5
ACHN = test system: ACHN
UACC-62 = test system: UACC-62

| SMILES | GI50 (786-0) | GI50 (PC-3) | GI50 (HCT-116) | GI50 (NCI-H460) | GI50 (HOP-92) | GI50 (MDA-N) | GI50 (SN12C) | GI50 (RPMI-8226) | GI50 (SF-539) | GI50 (SK-OV-3) | GI50 (COLO 205) | GI50 (OVCAR-3) | GI50 (SK-MEL-2) | GI50 (T47D) | GI50 (MOLT-4) | GI50 (UACC-257) | GI50 (HT-29) | GI50 (OVCAR-5) | GI50 (ACHN) | GI50 (UACC-62) |
| --- | --- | --- | --- | --- | --- | --- | --- | --- | --- | --- | --- | --- | --- | --- | --- | --- | --- | --- | --- | --- |
| CC(C)(C)n1c(=O)n2n(c1=O)C1c3cccc4cccc(c34)C2C2c3cccc4cccc(c34)C1n1c(=O)n(C(C)(C)C)c(=O)n12 | > 100 µM (inactive) | 59.8 µM (inactive) | 61.9 µM (inactive) | 64.7 µM (inactive) | > 100 µM (inactive) | > 100 µM (inactive) | > 100 µM (inactive) | 55.8 µM (inactive) | 41.4 µM (inactive) | 96.8 µM (inactive) | > 100 µM (inactive) | 16.3 µM (inactive) | 37.5 µM (inactive) | 44.9 µM (inactive) | 61 µM (inactive) | > 100 µM (inactive) | > 100 µM (inactive) | > 100 µM (inactive) | 61.4 µM (inactive) | 66.4 µM (inactive) |
| COc1ccc(Br)c(/C=N\c2cccc3cc(OC)c(OC)cc23)c1 | 13.7 µM (inactive) | 11.1 µM (inactive) | 4.35 µM (inactive) | 35.5 µM (inactive) | 20.2 µM (inactive) | 3.44 µM (inactive) | 12.8 µM (inactive) | 3.44 µM (inactive) | 2.64 µM (inactive) | 55.1 µM (inactive) | 79.3 µM (inactive) | 9.12 µM (inactive) | 42.3 µM (inactive) | 58.5 µM (inactive) | 4.81 µM (inactive) | 69.8 µM (inactive) | 20 µM (inactive) | 72.1 µM (inactive) | 25.5 µM (inactive) | 10.3 µM (inactive) |
| N#Cc1c(-c2ccc(Cl)cc2)cc(-c2ccc(Nc3ccnc4cc(C(F)(F)F)ccc34)cc2)[nH]c1=O | 12.4 µM (inactive) | 69.2 µM (inactive) | 4.76 µM (inactive) | > 100 µM (inactive) | 17.1 µM (inactive) | 3.53 µM (inactive) | 59.2 µM (inactive) | 21.1 µM (inactive) | 6.65 µM (inactive) | 28.1 µM (inactive) | 21 µM (inactive) | 8.26 µM (inactive) | 57.4 µM (inactive) | 4.79 µM (inactive) | 4.05 µM (inactive) | 37.2 µM (inactive) | 7.13 µM (inactive) | > 40.5 µM (inactive) | > 100 µM (inactive) | 21.9 µM (inactive) |
| CCOC(=O)c1nc2ccccc2nc1Oc1ccc(C#N)cc1 | > 100 µM (inactive) | > 100 µM (inactive) | > 100 µM (inactive) | > 100 µM (inactive) | 96.6 µM (inactive) | > 100 µM (inactive) | > 100 µM (inactive) | > 100 µM (inactive) | > 100 µM (inactive) | > 100 µM (inactive) | > 100 µM (inactive) | > 100 µM (inactive) | > 100 µM (inactive) | > 100 µM (inactive) | > 100 µM (inactive) | > 100 µM (inactive) | > 100 µM (inactive) | > 100 µM (inactive) | > 100 µM (inactive) | > 100 µM (inactive) |
| Cc1cc(/N=C/c2ccc(F)cc2)n(-c2ccccc2)n1 | > 100 µM (inactive) | > 100 µM (inactive) | > 100 µM (inactive) | 41.5 µM (inactive) | 89.1 µM (inactive) | 73.3 µM (inactive) | 57.3 µM (inactive) | 21.3 µM (inactive) | > 100 µM (inactive) | > 100 µM (inactive) | 37.1 µM (inactive) | > 100 µM (inactive) | > 100 µM (inactive) | 27.2 µM (inactive) | 35.3 µM (inactive) | 50.1 µM (inactive) | 48.9 µM (inactive) | > 100 µM (inactive) | > 100 µM (inactive) | > 100 µM (inactive) |
| Oc1nc2nc3ccccc3nc2nc1O | > 100 µM (inactive) | > 100 µM (inactive) | > 100 µM (inactive) | > 100 µM (inactive) | > 100 µM (inactive) | > 100 µM (inactive) | > 100 µM (inactive) | > 100 µM (inactive) | > 100 µM (inactive) | > 100 µM (inactive) | > 100 µM (inactive) | > 100 µM (inactive) | > 100 µM (inactive) | > 100 µM (inactive) | > 100 µM (inactive) | > 100 µM (inactive) | > 100 µM (inactive) | > 100 µM (inactive) | > 100 µM (inactive) | > 100 µM (inactive) |
| CC(/C=C/C(=O)NO)=C\C(C)C(=O)c1ccc(N(C)C)cc1 (stereo not given) | 0.0339 µM (active) | 0.0156 µM (active) | < 0.01 µM (active) | < 0.01 µM (active) | 0.0652 µM (active) | 0.0287 µM (active) | 0.0605 µM (active) | < 0.01 µM (active) | 0.0267 µM (active) | 0.0498 µM (active) | 0.0209 µM (active) | 0.0119 µM (active) | 0.217 µM (active) | < 0.01 µM (active) | < 0.0135 µM (active) | 0.0614 µM (active) | < 0.01 µM (active) | 0.114 µM (active) | 0.0231 µM (active) | 0.0512 µM (active) |

From ChEMBL document CHEMBL1201862, “PubChem BioAssay data set” (2004)
